In test [1] the target is T1, CDK12 protein level in CAL-120 breast cancer cells (Homo sapiens, UniProt Q9NYV4).
T1 construct: endogenous in cells; host or cells: CAL-120 human breast cancer cells (DSMZ ACC 459)
Put plainly: CDK12 protein level: Protein Simple (CDK12, CAL-120). The format is cell-based. To be noted: CAL-120 cells, 18 h with compound, CDK12/HSP90 peak area ratio vs vehicle, median, read-out: CDK12 protein level in CAL-120 breast ca cells, DC50-[mol/l] (median). The procedure: CAL-120 human breast cancer cells (DSMZ ACC 459) were seeded at 300,000 cells/well in 6-well plates containing 2 mL of growth medium (DMEM, 10% FCS, glutamine) and incubated for 24 h at 37° C. in an humidified incubator. Test compounds were added at various concentrations, control wells received solvent (DMSO), and the plates were incubated for another 18 h at 37° C. Cells were washed 2 times with PBS and lysed in 75 microL lysis buffer (MSD-Puffer (MSD, #R60TX-2), +1% 505S+PhosSTOP (Roche #04906837001)+complete mini (Roche #04693159001)) by scraping. The lysates were pushed 2 times through Qiashedders followed by centrifugation at 14,000 rpm for 30-50 sec. The supernatant was stored at −20° C. Proteins were separated by applying 0.4 microgramms of protein lysate to Protein Simple 66-440 kDa (Protein Simple #SM-S002) size assay columns on a PEGGY SUE or SALLY SUE equipment according to the supplier's manual. CDK12 and HSP90 (loading control) were detected using anti-human CDK12 antibody (Cell Signaling Technologies (CST) #11793) at 1:25 dilution and anti-human HSP90 antibody (CST #4877) at 1:5,000 dilution. CDK12 and HSP90 peak areas were determined using Protein Simple Compass software. Ratio of CDK12/HSP90 peak areas were calculated for each sample, and […] values (degrading concentration to achieve 50% reduction relative to vehicle treated control) were determined by means of a 4 parameter fit.

Test [2] relates to BRCA1 mRNA expression in CAL-120 cells. Put plainly: qRT-PCR assay: BRCA1 mRNA expression in CAL-120. The following applies: Homo sapiens; Inhibition of BRCA1 mRNA expression in CAL-120 cells; median; read-out: RTqPCR-CAL-120, IC50, BRCA1 (median). It counts as cell-based. The procedure:
3. qRT-PCR Assay: BRCA, ATR, MCL1 in MDA-MB-231, CAL-120
Tissue cultured human MDA-MB-231 human breast cancer cells were plated in 500 microL per well at 200,000 cells/well in a 24 well microtiter plate. After 24 h, the cells were exposed continuously for 24 h to test substances (substances were added with Tecan HP 0300 Dispenser). RNA was prepared using Qiagen RNeasy MiniKit (#74106), RNA was quantified using a NanoDrop Equipment, and 600 nano gamms of RNA was coverted to cDNA using a SuperScript VILO kit (Thermofisher #11755050) followed by qPCR amplification. BRCA1 and ATR gene expression was measured by RT-qPCR and normalised to GAPDH housekeeping gene expression. qPCR primer sets have been purchased from Thermo Fisher Scientific/Applied Biosystems: BRCA1, #Hs 01556193; ATR, #Hs 00992123; GAPDH, #Hs 03929097.
On the technique in general: Quantitative PCR measures a nucleic acid by following its amplification.

T1 sequence (Q9NYV4 whole entry): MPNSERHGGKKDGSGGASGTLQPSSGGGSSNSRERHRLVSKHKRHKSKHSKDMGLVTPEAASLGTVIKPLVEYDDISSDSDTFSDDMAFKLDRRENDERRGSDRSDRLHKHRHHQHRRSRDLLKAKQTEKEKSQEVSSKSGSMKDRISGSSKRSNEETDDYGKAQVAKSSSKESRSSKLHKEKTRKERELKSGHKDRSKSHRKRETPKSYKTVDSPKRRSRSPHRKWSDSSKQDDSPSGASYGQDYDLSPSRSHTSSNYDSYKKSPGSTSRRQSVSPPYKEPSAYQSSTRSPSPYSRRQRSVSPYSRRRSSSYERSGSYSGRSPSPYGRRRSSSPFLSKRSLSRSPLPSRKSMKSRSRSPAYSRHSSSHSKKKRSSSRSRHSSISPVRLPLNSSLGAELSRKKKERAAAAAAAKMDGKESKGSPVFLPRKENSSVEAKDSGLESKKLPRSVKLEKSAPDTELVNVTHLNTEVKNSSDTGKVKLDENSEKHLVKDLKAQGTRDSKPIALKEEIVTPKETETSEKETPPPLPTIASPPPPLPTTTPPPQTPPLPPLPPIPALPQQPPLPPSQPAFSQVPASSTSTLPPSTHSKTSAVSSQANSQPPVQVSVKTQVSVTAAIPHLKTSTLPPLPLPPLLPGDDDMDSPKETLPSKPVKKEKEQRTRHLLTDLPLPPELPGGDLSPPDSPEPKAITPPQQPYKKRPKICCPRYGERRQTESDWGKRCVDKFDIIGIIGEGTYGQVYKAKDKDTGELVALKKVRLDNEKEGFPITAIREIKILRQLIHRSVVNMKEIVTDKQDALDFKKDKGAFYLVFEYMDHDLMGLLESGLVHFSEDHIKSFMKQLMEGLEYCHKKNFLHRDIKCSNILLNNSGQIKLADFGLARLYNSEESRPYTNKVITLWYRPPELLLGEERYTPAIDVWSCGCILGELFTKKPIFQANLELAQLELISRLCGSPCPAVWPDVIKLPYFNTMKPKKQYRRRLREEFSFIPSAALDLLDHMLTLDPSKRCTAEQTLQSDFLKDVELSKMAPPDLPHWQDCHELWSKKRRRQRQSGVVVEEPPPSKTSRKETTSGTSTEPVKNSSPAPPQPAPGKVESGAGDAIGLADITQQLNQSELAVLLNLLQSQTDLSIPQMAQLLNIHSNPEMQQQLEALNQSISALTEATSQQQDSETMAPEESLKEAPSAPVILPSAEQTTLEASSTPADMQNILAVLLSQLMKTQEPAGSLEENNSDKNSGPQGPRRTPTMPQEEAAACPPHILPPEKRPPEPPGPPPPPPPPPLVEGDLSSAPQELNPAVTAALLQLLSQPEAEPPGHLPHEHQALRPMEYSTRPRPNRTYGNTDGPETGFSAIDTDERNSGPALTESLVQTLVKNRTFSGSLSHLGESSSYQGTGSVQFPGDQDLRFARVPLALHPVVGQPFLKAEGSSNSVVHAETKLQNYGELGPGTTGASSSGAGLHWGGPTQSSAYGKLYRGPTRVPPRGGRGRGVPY
T1 sequence (O75909 whole entry partner): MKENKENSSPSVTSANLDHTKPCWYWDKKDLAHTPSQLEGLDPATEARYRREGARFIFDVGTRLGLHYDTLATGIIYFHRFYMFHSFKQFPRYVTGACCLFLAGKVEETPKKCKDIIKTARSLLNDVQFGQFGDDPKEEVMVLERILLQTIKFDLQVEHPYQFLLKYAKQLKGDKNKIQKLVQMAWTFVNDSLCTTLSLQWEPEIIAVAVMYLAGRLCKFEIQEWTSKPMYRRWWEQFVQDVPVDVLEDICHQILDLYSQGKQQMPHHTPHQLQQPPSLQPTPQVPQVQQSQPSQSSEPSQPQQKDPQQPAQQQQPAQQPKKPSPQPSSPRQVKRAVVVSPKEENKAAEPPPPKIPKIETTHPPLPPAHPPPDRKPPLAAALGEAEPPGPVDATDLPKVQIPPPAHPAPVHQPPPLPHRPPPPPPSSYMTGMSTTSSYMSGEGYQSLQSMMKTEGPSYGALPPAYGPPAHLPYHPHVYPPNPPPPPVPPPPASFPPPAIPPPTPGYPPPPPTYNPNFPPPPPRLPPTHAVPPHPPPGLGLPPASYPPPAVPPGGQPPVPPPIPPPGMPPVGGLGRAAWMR

Turning to `CN1CCN(c2nc(NCc3nc4cc(F)ccc4[nH]3)n3ncc(C4CC4)c3n2)CC1` [Example 164, 8-cyclopropyl-N-[(5-fluoro-1H-benzimidazol-2-yl)methyl]-2-(4-methylpiperazin-1-yl)pyrazolo[1,5-a][1,3,5]triazin-4-amine], in test [1], the DC50 was 1.08 nM.
Take `NCCc1cccc2[nH]c(CNc3nc(N4CCOCC4)nc4c(Br)cnn34)nc12` [Example 112, N-{[7-(2-aminoethyl)-1H-benzimidazol-2-yl]methyl}-8-bromo-2-(morpholin-4-yl)pyrazolo[1,5-a][1,3,5]triazin-4-amine]: the DC50 in test [1] is 58.8 nM.
A word on the IC50: it is the concentration that gives 50% inhibition. Take `Brc1cnn2c(NCc3nc4ccccc4[nH]3)nc(N3CCOCC3)nc12` [Example 4, N-[(1H-benzimidazol-2-yl)methyl]-8-bromo-2-(morpholin-4-yl)pyrazolo[1,5-a][1,3,5]triazin-4-amine]: the half-inhibitory concentration (IC50) in test [2] is 7.06 nM. The DC50 in test [1] turned out to be 0.476 nM.

For the origin of these results see US20230117034A1, “PYRAZOLOTRIAZINES” (Bayer Aktiengesellschaft, priority 2019, published 2023).
